Measurements taken from patent publication US20100226980A1, “NOVEL TABLET BASED ON S-ADENOSYL-METHIONINE” (VETOQUINOL, priority 2009, published 2010).

Test: Pharmacokinetic tests on dogs
Format: in vivo
Method: In order to confirm the results obtained in vitro, pharmacokinetic tests were carried out on dogs.

degradation of SAMe (after administration of tablet): not degraded
pharmacokinetic profiles of the different dogs (variability between animals): homogeneous and vary very little
Structure (SMILES): C[S+](CC[C@H](N)C(=O)O)C[C@H]1O[C@@H](n2cnc3c(N)ncnc32)[C@H](O)[C@@H]1O.Cc1ccc(S(=O)(=O)[O-])cc1 (stereo partly drawn) [SAMe, S-Adenosyl-Methionine Paratoluene Sulphonate]
absorption of SAMe (after administration of tablet): absorbed in the stomach as soon as it is administered
